Read-outs that look alike come from different tables or passages of the source.
Experiments:
rats [1] = conditions: cited from earlier work
[2] = rats, 3 mg/kg, cited from earlier work
[3] = rat, cited from earlier work
[4] = human, cited from earlier work
[5] = system: anxiety, specifically GAD; assay: randomised placebo-controlled double-blind study in GAD, Hamilton Anxiety Scale (HAM-A); format: in vivo, humans; conditions: GAD patients
Experimental: (§1) The efficacy of deramciclane in the treatment of anxiety, specifically GAD, was studied in a randomised placebo-controlled double-blind study. In addition, the dose-dependency of the effects of deramciclane was evaluated. Total of 208 patients were included in the study. The subjects were randomly assigned to four parallel groups to receive one tablet twice daily (b.i.d) of a placebo, 5mg (=10mg/day), 15mg (=30mg/day), or 30mg (=60mg/day) deramciclane. The study started with a one-week placebo run-in period, followed by an eight-week placebo-controlled active treatment and a two-week placebo washout period.
The efficacy of deramciclane on anxiety symptoms was studied by the efficacy variable Hamilton Anxiety Scale (HAM-A), analyzing the change in the score and using responder criterion (at least 50 % reduction in HAM-A total score).

mice [6] = conditions: oral doses 48-160 mg/kg; cited from earlier work
serotonin 5HT2A-receptor [7] = molecular target: T1, serotonin 5HT2A-receptor (Homo sapiens, UniProt P28223); conditions: cited from earlier work
[8] = humans, cited from earlier work; for Cmin and Cmax range: repeated administration for one week
rats [9] = conditions: single intraperitoneal administration; cited from earlier work
mice [10] = conditions: single subcutaneous administration, 3 mg/kg; cited from earlier work
rats [11] = conditions: oral doses of 25 and 100 mg/kg; cited from earlier work
serotonin 5HT2A-receptor [12] = molecular target: T1, serotonin 5HT2A-receptor; design: serotonin 5-HT2A-receptors in frontal cortex of healthy male volunteers; from tissue; host or cells: frontal cortex of living healthy male volunteers; conditions: humans, brain 5HT2A-receptor, single oral dose; cited from earlier work
rat = conditions: intraperitoneally 1 or 10 mg/kg, 8 times, twice a day, before the test; cited from earlier work
[13] = design: species or system human; conditions: in vivo
Experimental: A comparative pharmacokinetic study of orally administered deramciclane in rats, dogs, rabbits and humans (Klebovich et al Pharm. Pharmacol. Commun., 4: 129-136, 1998), it was shown that the plasma concentration curves obtained after the administration of a single 3mg/kg oral dose of deramciclane to rats (dogs, rabbits) and human show considerable species specific differences. […] Thus a 40-times lower oral dose of deramciclane could be used in man to result in the same maximal plasma concentration as in rat. […] Thus over 300 times lower oral doses should result in equal exposure in humans than in rats. Basing only the Cmax difference between rat and man, it can be predicted that considerably lower doss should be centrally acitive in humans than in rat. The minimum oral effective anti-anxiety dose in rats was 1 mg/kg (1-30mg/kg the full range; see above), i.e. in a 70 kg-man this would mean 70 mg dose. […] This would result in 70 mg/40= 1.75 mg (i.e. 0.025 mg/kg) as an effective dose in man.

rats [14] = conditions: cited from earlier work; remark: listed apart in the source
[15] = molecular target: T2, serotonin 5-HT2C-receptor (Homo sapiens, UniProt P28335); conditions: cited from earlier work
T2 sequence (P28335 33-458): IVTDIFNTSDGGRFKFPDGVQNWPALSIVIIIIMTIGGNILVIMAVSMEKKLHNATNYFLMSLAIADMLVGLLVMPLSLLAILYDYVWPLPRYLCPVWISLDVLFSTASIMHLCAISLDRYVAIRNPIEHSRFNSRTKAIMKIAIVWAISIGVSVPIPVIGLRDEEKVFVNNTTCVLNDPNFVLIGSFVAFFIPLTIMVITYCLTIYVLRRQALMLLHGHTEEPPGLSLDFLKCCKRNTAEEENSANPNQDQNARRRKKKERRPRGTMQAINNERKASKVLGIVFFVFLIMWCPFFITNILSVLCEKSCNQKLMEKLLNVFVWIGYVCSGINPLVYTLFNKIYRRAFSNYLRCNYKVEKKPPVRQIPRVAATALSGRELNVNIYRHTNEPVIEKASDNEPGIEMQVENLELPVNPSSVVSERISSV

depressive symptoms = assay: randomised placebo-controlled double-blind study in GAD, Montgomery Åsberg Depression Rating Scale (MADRS); format: in vivo, humans; conditions: GAD patients
Experimental: as §1
The efficacy of deramciclane on depressive symptoms was studied using Montgomery Åsberg Depression Rating Scale (MADRS).

[16] = single oral administration, 3 mg/kg

T1 sequence (P28223 whole entry): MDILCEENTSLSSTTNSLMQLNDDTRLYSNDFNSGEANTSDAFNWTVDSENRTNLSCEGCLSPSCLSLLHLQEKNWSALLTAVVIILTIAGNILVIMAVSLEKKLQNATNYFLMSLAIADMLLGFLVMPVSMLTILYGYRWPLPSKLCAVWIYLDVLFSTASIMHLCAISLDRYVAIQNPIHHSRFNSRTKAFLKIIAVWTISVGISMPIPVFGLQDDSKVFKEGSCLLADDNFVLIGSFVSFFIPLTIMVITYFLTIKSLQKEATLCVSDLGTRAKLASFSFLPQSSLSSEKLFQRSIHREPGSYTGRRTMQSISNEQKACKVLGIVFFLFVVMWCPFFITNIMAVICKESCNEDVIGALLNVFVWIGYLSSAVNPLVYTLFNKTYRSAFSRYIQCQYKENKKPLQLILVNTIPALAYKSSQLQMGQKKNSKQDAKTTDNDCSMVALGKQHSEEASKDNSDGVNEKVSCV

- factor by which oral dose in man can be lower for the same maximal plasma concentration as in rat [13]: 40 times
- factor by which oral doses in humans can be lower for equal exposure as in rats [13]: over 300 times
SMILES: CN(C)CCO[C@]1(c2ccccc2)C[C@H]2CC[C@]1(C)C2(C)C [deramciclane, (lR,2S,4R)-(-)-2-[N,N-(dimethylaminoethoxy)]-2-phenyl-1,7,7-trimethyl-bicyclo[2.2.1]heptane]
- caerulein-induced decrease in exploratory behavior (rats [1]; intraperitoneal dose of 0.5 mg/kg): able to attenuate
- effect in elevated plus maze test (rats [1]; rats, single intraperitoneal doses 0.1 mg/kg - 5 mg/kg): totally ineffective
- radioactivity in several organs including blood and the brain ([2]; intravenous administration): high radioactivity
- radioactivity in organs, especially in the brain ([2]; oral administration, compared with intravenous): substantially lower
- peak plasma concentration (Cmax) ([3]; single 3 mg/kg oral dose): 5.4 ng/mL
- mean AUC 0 - ∞ [3, 16]: 11.9 ng·h/mL
- peak plasma concentration (Cmax) ([4]; single 3 mg/kg oral dose): 217.5 ng/mL
- mean AUC 0 - ∞ [4, 16]: 3737.8 ng·h/mL
- HAM-A score compared with placebo ([5]; 5 mg b.i.d, eight weeks): No difference
- responders (at least 50 % reduction in HAM-A scale) ([5]; 5 mg b.i.d. (n=31), placebo 54 %): 57%
- decrease of HAM-A score from baseline ([5]; 15 mg b.i.d, eight weeks, p=0.006 versus placebo): 14.5 points
- responders (at least 50 % reduction in HAM-A scale) ([5]; 15 mg b.i.d. (n=39), p=0.020 versus placebo): 76%
- responders (at least 50 % reduction in HAM-A scale) ([5]; 30 mg b.i.d. (n=37)): 70%
- decrease of HAM-A score from baseline ([5]; 30 mg b.i.d., eight weeks, not significant versus placebo): 14.5 points
- effect on tetrabenazine-induced ptosis (mice [6]): negligible
- antagonism of the receptor (serotonin 5HT2A-receptor [7]): potent antagonist
- binding affinity (serotonin 5HT2A-receptor [7]; in vitro): high affinity
- Cmin and Cmax range ([8]; 20 mg daily dose): 16 to 33 ng/mL
- Cmin and Cmax range ([8]; 60 mg daily dose): 48 to 91 ng/mL
- Cmax ([8]; single oral administration of 20 mg): 24 ± 9.4 ng/mL
- Cmax ([8]; single oral administration of 30 mg): 27 ± 6.1 ng/mL
- minimum effective dose (social interaction time) (rats [9]): 0.7 mg/kg
- activity in two compartment test (mice [10]): active
- effect in forced swimming test (rats [11]): clearly ineffective
- plasma concentration at 50% receptor occupancy (serotonin 5HT2A-receptor [12]): ~21 ng/mL
- plasma concentration at 90% receptor occupancy (serotonin 5HT2A-receptor [12]): about 70 ng/ml
- helpless behaviour induced by inescapable electric foot shocks (rat): dose dependently attenuated
- minimum oral effective anti-anxiety dose (rats [14]; oral): 1 mg/kg
- activity in punished drinking test (rats [14]; single oral administration, 1 mg/kg and 10 mg/kg): active
- antagonism of the receptor [15]: potent antagonist
- binding affinity ([15]; in vitro): high affinity
- effect on MADRS scores (depressive symptoms; 5 mg b.i.d): ineffective
- decrease of MADRS scores (depressive symptoms; 15mg b.i.d, p= 0.028): 7.7 points
- decrease of MADRS scores (depressive symptoms; 30 mg b.i.d, p= 0.016): 8.0 points

From patent EP1133986A1, “Use of deramciclane for the treatment of anxiety and depression” (priority 2000, dated 2001)
